Measured values as given in PubChem BioAssay (NCI).
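Interpolation was linear, between the two tested concentrations surrounding the appropriate level; five concentrations were tested over 48 hours in 96-well plates. GI50 = concentration required for 50% inhibition of growth. The concentration for full growth arrest is given as TGI.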

Experiments:
Experiment in all cases: growth of human tumour cells (NCI), 48 h
SF-268 CNS = tested on: SF-268 CNS
RXF 393 renal = tested on: RXF 393 renal
HCT-15 colon = tested on: HCT-15 colon
HCC-2998 colon = tested on: HCC-2998 colon
PC-3 prostate = tested on: PC-3 prostate
OVCAR-8 ovarian = tested on: OVCAR-8 ovarian
A498 renal = tested on: A498 renal
UACC-257 melanoma = tested on: UACC-257 melanoma
MOLT-4 leukemia = tested on: MOLT-4 leukemia
HT29 colon = tested on: HT29 colon
CCRF-CEM leukemia = tested on: CCRF-CEM leukemia
UACC-62 melanoma = tested on: UACC-62 melanoma
HOP-62 NSCLC = tested on: HOP-62 NSCLC
NCI-H460 lung = tested on: NCI-H460 lung
SK-OV-3 ovarian = tested on: SK-OV-3 ovarian
MDA-MB-435 = tested on: MDA-MB-435
OVCAR-3 ovarian = tested on: OVCAR-3 ovarian
SK-MEL-5 melanoma = tested on: SK-MEL-5 melanoma
UO-31 renal = tested on: UO-31 renal
ACHN renal = tested on: ACHN renal
786-0 renal = tested on: 786-0 renal
HCT-116 colon = tested on: HCT-116 colon
SR leukemia = tested on: SR leukemia
HS 578T breast = tested on: HS 578T breast
M14 melanoma = tested on: M14 melanoma

## O=C1Nc2cc(OC(F)(F)F)ccc2Oc2ccc(-c3ccnc(N4CCNCC4)c3)cc21
SF-268 CNS
  GI50: 1700 nM
  TGI: 3.48 µM
RXF 393 renal
  GI50: 1390 nM
  TGI: 2840 nM
HCT-15 colon
  GI50: 864 nM
  TGI: 4.56 µM
HCC-2998 colon
  GI50: 1330 nM
  TGI: 2690 nM
PC-3 prostate
  GI50: 1290 nM
  TGI: 2870 nM
OVCAR-8 ovarian
  GI50: 1580 nM
  TGI: 3 µM
A498 renal
  GI50: 1600 nM
  TGI: 2950 nM
UACC-257 melanoma
  GI50: 1550 nM
  TGI: 3.05 µM
MOLT-4 leukemia
  GI50: 1080 nM
  TGI: 3.29 µM
HT29 colon
  GI50: 764 nM
  TGI: 2060 nM
CCRF-CEM leukemia
  GI50: 1870 nM
  TGI: 6.76 µM
UACC-62 melanoma
  GI50: 1650 nM
  TGI: 3.15 µM
HOP-62 NSCLC
  GI50: 1600 nM
  TGI: 3.26 µM
NCI-H460 lung
  GI50: 655 nM
  TGI: 1940 nM
SK-OV-3 ovarian
  GI50: 2570 nM
  TGI: 6.79 µM
MDA-MB-435
  GI50: 282 nM
  TGI: 1030 nM
OVCAR-3 ovarian
  GI50: 1120 nM
  TGI: 2490 nM
SK-MEL-5 melanoma
  GI50: 1620 nM
  TGI: 3.01 µM
UO-31 renal
  GI50: 1340 nM
  TGI: 2660 nM
ACHN renal
  GI50: 1680 nM
  TGI: 3.05 µM
786-0 renal
  GI50: 1530 nM
  TGI: 2890 nM
HCT-116 colon
  GI50: 1000 nM
  TGI: 2170 nM
SR leukemia
  GI50: 345 nM
  TGI: 1820 nM
HS 578T breast
  GI50: 1700 nM
  TGI: 3.98 µM
M14 melanoma
  GI50: 1230 nM
  TGI: 2540 nM
